Source: US5070210A, “Novel ketenimines as intermediates for insecticides” (ICI Americas Inc., priority 1990, dated 1991)

How the values were obtained:
Format in all cases: in vivo
[1] = test system: Aster Leafhopper [Macrosteles fascifrens (Stal)]; experiment: Aster leafhopper insecticidal test; details: adults/nymphs, percent in solution; 48 hours
Method: The compounds in Tables 1 and 2 above were tested for insecticidal activity using the following testing procedures. LC50 values, based on the results of these tests and calculated according to dosage-mortality curves, are expressed in Table 3.
Aster Leafhopper [Macrosteles fascifrens (Stal)]
Oat seedlings (Avena sp) were grown in a commercial potting soil in cups. When the plants were approximately 10 cm tall they were thinned to three plants per cup and dipped for 2-3 seconds in 50-50 acetone-water solutions of the test compounds. When the plants had dried, a clear plastic tube was placed over them and the bottom end pressed into the cup. Ten aster leafhopper adults/nymphs were then placed in each tube and the tops of the tubes covered with white organdy cloth. Mortality counts were made after 48 hours. Test concentrations ranged from 0.05% down to that at which 50% mortality occurred. The LC50 values are expressed below in Table 3 under the heading "LH" in terms of the percent of the test compound in the solution.

[2] = test system: Maize weevil [Sitophilus Zeamais (Motschulsky)]; experiment: Maize weevil insecticidal test; details: adult weevils, percent in solution; 48 hours
Method in brief: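 LC50, in percent of compound in solution, was derived from dosage-mortality curves after 48 h at about 25 °C. Ten adult weevils per container fed on four corn seeds briefly immersed in acetone:water (50:50) solutions of up to 0.01% and dried.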

[3] = test system: Tobacco Budworm [Heliothis virescens (Fabricius)] eggs; experiment: Tobacco budworm egg test; details: 2-day old eggs, percent in solution
Method in brief: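 LC50 values (percent test compound in the dip solution) were calculated from dosage-mortality curves. Egg patches, 2 days old, were dipped in acetone solutions at concentrations from 0.1% downward and held at 78° F on rearing medium until control larvae hatched and fed.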

[4] = test system: Housefly [Musca domestica]; experiment: Housefly insecticidal test; details: μg per 25 female flies; mortality after 48 hours
Method in brief: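 LC50 (μg compound per 25 female flies) derives from dosage-mortality curves of 48 h kill. Flies, females 1-2 days old, were held 25 per cage over a dish coated with dried acetone deposit, starting at 100 μg per cage and descending.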

[5] = test system: Cabbage Looper [Trichoplusia ni (Hubner)]; experiment: Cabbage looper insecticidal test; details: second-instar larvae, percent in solution; 3-5 days
Method in brief: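 Leaf dip, squash cotyledons, 50-50 acetone-water, top dose 0.1% and lower. 5 second-instar larvae/dish, moist filter paper, high-humidity chamber. Mortality at 3-5 d; LC50 (% in solution) from dosage-mortality curves.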

Row | SMILES | LC50, LH [1] | LC50, MW [2] | LC50, TBW, E (TBW-E) [3] | LC50, HF [4] | LC50, CL [5]
1 | C=C(C)C(=Nc1ccc(Cl)cc1)OCc1cccc(Oc2ccccc2)c1 [Compound 6] | > 0.05% | > 0.01% | 0.015% | 17 µg | 0.02%
2 | CCC(=Nc1ccc(Cl)cc1)OCc1cccc(Oc2ccccc2)c1 [Compound 11] | > 0.05% | > 0.01% | > 0.1% | 6 µg | 0.025%
3 | CC(C)C(=Nc1cc(Cl)ccc1Cl)OCc1cccc(Oc2ccccc2)c1 [Compound 13] | > 0.05% | > 0.01% | > 0.1% | > 100 µg | 0.014%
4 | CC(C)C(=Nc1ccccc1Cl)OCc1cccc(Oc2ccccc2)c1 [Compound 17] | > 0.05% | > 0.01% | > 0.1% | 75 µg | 0.03%
5 | N#CC(=Nc1ccc(Cl)cc1)OCc1cccc(Oc2ccccc2)c1 [Compound 21] | > 0.05% | > 0.01% | > 0.1% | 7 µg | 0.02%
6 | CC(C)(C)C(=Nc1ccc(Cl)c(Cl)c1)OCc1cccc(Oc2ccccc2)c1 [Compound 25] | > 0.05% | > 0.01% | > 0.1% | > 100 µg | 0.01%
7 | FC(F)(F)C(=Nc1ccc(Cl)cc1)OCc1cccc(Oc2ccccc2)c1 [Compound 35] | > 0.05% | > 0.01% | 0.03% | 15 µg | 0.008%
8 | CC(C)C(=Nc1ccccc1)OCc1cccc(Oc2ccccc2)c1 [Compound 43] | > 0.05% | > 0.01% | 0.05% | 7 µg | 0.018%
9 | Fc1ccc(N=C(OCc2cccc(Oc3ccccc3)c2)C(F)F)cc1 [Compound 50] | > 0.05% | > 0.01% | > 0.05% | 43 µg | 0.02%
10 | CC(C)C(=Nc1ccccc1C(F)(F)F)OCc1cccc(Oc2ccccc2)c1 [Compound 72] | > 0.05% | > 0.01% | > 0.1% | > 100 µg | 0.08%
11 | CCS(=O)(=O)c1ccc(N=C(OCc2cccc(Oc3ccccc3)c2)C(C)C)cc1Cl [Compound 112] | > 0.05% | > 0.01% | > 0.1% | > 100 µg | 0.025%
12 | Fc1ccc(N=C(OCc2cccc(Oc3ccccc3)c2)C(F)(F)C(F)(F)F)cc1Cl [Compound 117] | 0.0003% | > 0.01% | > 0.1% | 55 µg | 0.006%
13 | CC(C)C(=Nc1ccc(F)c(Cl)c1)OCc1cccc(Oc2ccccc2F)c1 [Compound 119] | 0.0008% | > 0.01% | 0.048% | 27 µg | 0.0007%
14 | CC1(C)C(C(=Nc2ccc(F)c(Cl)c2)OCc2cccc(Oc3ccccc3)c2)C1(C)C [Compound 124] | > 0.05% | > 0.01% | > 0.1% | 17 µg | 0.01%
15 | CC(C)C(=Nc1cccc(Br)c1)OCc1cccc(Oc2ccccc2)c1 [Compound 128] | 0.003% | > 0.01% | 0.037% | 4.5 µg | 0.005%
16 | CC(C)C(=Nc1ccccc1Br)OCc1cccc(Oc2ccccc2)c1 [Compound 132] | > 0.05% | > 0.01% | > 0.1% | 65 µg | 0.025%
17 | CSc1ccc(N=C(OCc2cccc(Oc3ccccc3)c2)C(C)C)cc1 [Compound 142] | > 0.05% | > 0.01% | 0.1% | 15 µg | 0.005%
18 | COc1cccc(N=C(OCc2cccc(Oc3ccccc3)c2)C(C)C)c1 [Compound 143] | 0.006% | > 0.01% | < 0.1% | 10 µg | 0.002%

Row | SMILES | LC50, LH [1] | LC50, MW [2] | LC50, TBW, E (TBW-E) [3] | LC50, HF [4] | LC50, CL [5]
19 | COC(=O)c1ccc(N=C(OCc2cccc(Oc3ccccc3)c2)C(C)C)cc1 [Compound 151] | > 0.05% | > 0.01% | > 0.1% | 38 µg | 0.009%
20 | CC(C)C(=Nc1ccc(C(C)(C)C)cc1)OCc1cccc(Oc2ccccc2)c1 [Compound 153] | 0.0005% | > 0.01% | 0.1% | > 100 µg | 0.004%
21 | Cc1cccc(N=C(OCc2cccc(Oc3ccccc3)c2)C(C)C)c1 [Compound 155] | > 0.05% | > 0.01% | 0.06% | 9 µg | 0.004%
22 | Cc1ccc(N=C(OCc2cccc(Oc3ccccc3)c2)C(C)C)cc1 [Compound 156] | > 0.05% | > 0.01% | 0.05% | 10 µg | 0.004%
23 | COc1ccc(N=C(OCc2cccc(Oc3ccccc3)c2)C(C)C)cc1 [Compound 160] | 0.05% | > 0.01% | 0.09% | 7 µg | 0.005%
24 | CC(C)C(=Nc1ccc(C#N)cc1)OCc1cccc(Oc2ccccc2)c1 [Compound 172] | > 0.05% | > 0.01% | 0.04% | 5 µg | 0.002%
25 | c1ccc(Oc2cccc(COC(=Nc3ccc4c(c3)OCO4)C3CC3)c2)cc1 [Compound 177] | > 0.05% | 0.01% | > 0.1% | 13 µg | 0.002%
26 | CSc1ccc(Oc2cccc(COC(=Nc3ccc(F)cc3)C(C)C)c2)cc1 [Compound 257] | > 0.05% |  | > 0.1% | > 100 µg | 0.008%
27 | Fc1ccc(Oc2cccc(COC(=Nc3ccc(F)c(Cl)c3)C(F)(F)C(F)(F)F)c2)cc1 [Compound 258] | > 0.05% |  | > 0.1% | > 100 µg | 0.003%
28 | CC(C)C(=Nc1cc(F)ccc1Cl)OCc1ccc(F)c(Oc2ccc(F)cc2)c1 [Compound 303] | 0.0005% |  | > 0.1% | > 100 µg | 0.0015%
29 | CC(C)C(=Nc1ccc(Cl)cc1)OC(C)c1cccc(Oc2ccccc2)c1 (stereo not drawn) [Compound 457] | > 0.05% |  | > 0.05% | > 100 µg | 0.009%
30 | CC(C)C(=Nc1ccc2c(c1)OCO2)OCc1cccc(Oc2ccc(F)cc2)n1 [Compound 465] | 0.0025% |  | 0.027% | 8 µg | 0.0017%
31 | COCc1c(F)c(F)c(COC(=Nc2ccc(F)c(Cl)c2F)C(C)C)c(F)c1F [Compound 522] | 0.05% | > 0.01% | > 0.1% |  | > 0.1%
32 | CC(C)C(=Nc1cccc(C(F)(F)F)c1)OCc1cc(Oc2ccc(F)cc2)ccn1 [Compound 528] | > 0.05% | > 0.01% | > 0.1% |  | 0.0075%
33 | CC(C)C(=Nc1ccc(F)c(Cl)c1)OCc1cc(Oc2ccc(F)cc2)ccn1 [Compound 529] | > 0.05% | > 0.01% | > 0.1% |  | > 0.0025%
34 | CC(C)C(=Nc1ccc(F)c(Cl)c1)OCc1cccc(Cc2ccccc2)c1 [Compound 541] | > 0.05% | > 0.01% |  | < 100 µg | 0.001%
35 | CC(C)C(=Nc1ccc(C(F)(F)F)cc1)OCc1cccc(Cc2ccccc2)c1 [Compound 543] | < 0.05% | > 0.01% |  | < 100 µg | 0.0008%
